In PubChem BioAssay (NCI):
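48-hour exposure; five concentrations; linearly interpolated endpoints. Here, GI50 denotes the concentration required for 50% inhibition of growth. At the TGI there is no net growth.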

Key:
Test in all cases: NCI tumour cell line growth inhibition, 48 h
NCI-H522 lung = system: NCI-H522 lung
T-47D breast = system: T-47D breast
SK-MEL-28 melanoma = system: SK-MEL-28 melanoma
HCT-116 colon = system: HCT-116 colon
BT-549 breast = system: BT-549 breast
NCI-H226 lung = system: NCI-H226 lung
M14 melanoma = system: M14 melanoma
MCF7 breast = system: MCF7 breast
HT29 colon = system: HT29 colon
HOP-62 NSCLC = system: HOP-62 NSCLC
K-562 leukemia = system: K-562 leukemia
CCRF-CEM leukemia = system: CCRF-CEM leukemia
IGROV1 ovarian = system: IGROV1 ovarian
SNB-19 CNS = system: SNB-19 CNS
HOP-92 NSCLC = system: HOP-92 NSCLC
NCI-H23 lung = system: NCI-H23 lung
U251 CNS = system: U251 CNS
HS 578T breast = system: HS 578T breast
SR leukemia = system: SR leukemia
OVCAR-5 ovarian = system: OVCAR-5 ovarian
OVCAR-3 ovarian = system: OVCAR-3 ovarian
OVCAR-8 ovarian = system: OVCAR-8 ovarian
HL-60(TB) leukemia = system: HL-60(TB) leukemia
SK-MEL-2 melanoma = system: SK-MEL-2 melanoma
RXF 393 renal = system: RXF 393 renal
A498 renal = system: A498 renal
SNB-75 CNS = system: SNB-75 CNS
MALME-3M melanoma = system: MALME-3M melanoma
NCI/ADR-RES ovarian = system: NCI/ADR-RES ovarian
SK-OV-3 ovarian = system: SK-OV-3 ovarian
UO-31 renal = system: UO-31 renal
PC-3 prostate = system: PC-3 prostate
OVCAR-4 ovarian = system: OVCAR-4 ovarian
MDA-MB-435 = system: MDA-MB-435
KM12 colon = system: KM12 colon
CAKI-1 renal = system: CAKI-1 renal
DU-145 prostate = system: DU-145 prostate
COLO 205 colon = system: COLO 205 colon
MOLT-4 leukemia = system: MOLT-4 leukemia
UACC-62 melanoma = system: UACC-62 melanoma
SK-MEL-5 melanoma = system: SK-MEL-5 melanoma
MDA-MB-231 breast = system: MDA-MB-231 breast
NCI-H460 lung = system: NCI-H460 lung
SN12C renal = system: SN12C renal
HCT-15 colon = system: HCT-15 colon
RPMI-8226 leukemia = system: RPMI-8226 leukemia
HCC-2998 colon = system: HCC-2998 colon
ACHN renal = system: ACHN renal
786-0 renal = system: 786-0 renal
UACC-257 melanoma = system: UACC-257 melanoma
SF-295 CNS = system: SF-295 CNS
SW-620 colon = system: SW-620 colon
SF-268 CNS = system: SF-268 CNS
A549 NSCLC = system: A549 NSCLC
TK-10 renal = system: TK-10 renal
SF-539 CNS = system: SF-539 CNS
LOX IMVI melanoma = system: LOX IMVI melanoma

## C[C@H]1S[C@@H](c2ccc(Cl)cc2Cl)N(NC(=O)c2ccncc2)C1=O
NCI-H522 lung
  TGI: > 100 µM
T-47D breast
  TGI: > 100 µM
SK-MEL-28 melanoma
  TGI: > 100 µM
HCT-116 colon
  TGI: > 100 µM
BT-549 breast
  TGI: > 100 µM
NCI-H226 lung
  TGI: > 100 µM
M14 melanoma
  TGI: > 100 µM
MCF7 breast
  TGI: > 100 µM
HT29 colon
  TGI: > 100 µM
HOP-62 NSCLC
  TGI: > 100 µM
K-562 leukemia
  TGI: > 100 µM
CCRF-CEM leukemia
  TGI: > 100 µM
IGROV1 ovarian
  TGI: > 100 µM
SNB-19 CNS
  TGI: > 100 µM
HOP-92 NSCLC
  TGI: > 100 µM
NCI-H23 lung
  TGI: > 100 µM
U251 CNS
  TGI: > 100 µM
HS 578T breast
  TGI: > 100 µM
SR leukemia
  TGI: > 100 µM
OVCAR-5 ovarian
  TGI: > 100 µM
OVCAR-3 ovarian
  TGI: > 100 µM
OVCAR-8 ovarian
  TGI: > 100 µM
HL-60(TB) leukemia
  TGI: > 100 µM
SK-MEL-2 melanoma
  TGI: > 100 µM
RXF 393 renal
  TGI: > 100 µM
A498 renal
  TGI: > 100 µM
SNB-75 CNS
  TGI: > 100 µM
MALME-3M melanoma
  TGI: > 100 µM
NCI/ADR-RES ovarian
  TGI: > 100 µM
SK-OV-3 ovarian
  TGI: > 100 µM
UO-31 renal
  TGI: > 100 µM
PC-3 prostate
  TGI: > 100 µM
OVCAR-4 ovarian
  TGI: > 100 µM
MDA-MB-435
  TGI: > 100 µM
KM12 colon
  TGI: > 100 µM
CAKI-1 renal
  TGI: > 100 µM
DU-145 prostate
  TGI: > 100 µM
COLO 205 colon
  TGI: > 100 µM
MOLT-4 leukemia
  TGI: > 100 µM
UACC-62 melanoma
  TGI: > 100 µM
SK-MEL-5 melanoma
  TGI: > 100 µM
MDA-MB-231 breast
  TGI: > 100 µM
NCI-H460 lung
  TGI: > 100 µM
SN12C renal
  TGI: > 100 µM
HCT-15 colon
  TGI: > 100 µM
RPMI-8226 leukemia
  TGI: > 100 µM

## O=c1[nH]c(C2CCCN2)nc2c1oc1ccc(Cl)cc12 (stereo not given)
NCI-H522 lung
  GI50: 26.9 µM
  TGI: > 100 µM
HCC-2998 colon
  GI50: > 100 µM
  TGI: > 100 µM
T-47D breast
  GI50: 30.5 µM
  TGI: > 100 µM
SK-MEL-28 melanoma
  GI50: > 100 µM
  TGI: > 100 µM
HCT-116 colon
  GI50: > 90.7 µM
  TGI: > 100 µM
ACHN renal
  GI50: > 100 µM
  TGI: > 100 µM
BT-549 breast
  GI50: 31.5 µM
  TGI: > 100 µM
NCI-H226 lung
  GI50: 18.6 µM
  TGI: > 100 µM
M14 melanoma
  GI50: 57.1 µM
  TGI: > 100 µM
MCF7 breast
  GI50: 80.4 µM
  TGI: > 100 µM
HT29 colon
  GI50: > 100 µM
  TGI: > 100 µM
HOP-62 NSCLC
  GI50: 49.9 µM
  TGI: > 100 µM
K-562 leukemia
  GI50: > 84.4 µM
  TGI: > 100 µM
CCRF-CEM leukemia
  GI50: 68.1 µM
  TGI: > 100 µM
IGROV1 ovarian
  GI50: > 100 µM
  TGI: > 100 µM
786-0 renal
  GI50: > 100 µM
  TGI: > 100 µM
SNB-19 CNS
  GI50: 68.1 µM
  TGI: > 100 µM
HOP-92 NSCLC
  GI50: 12.4 µM
  TGI: > 91.1 µM
NCI-H23 lung
  GI50: > 100 µM
  TGI: > 100 µM
U251 CNS
  GI50: 36.2 µM
  TGI: > 100 µM
HS 578T breast
  GI50: 28.3 µM
  TGI: > 100 µM
SR leukemia
  GI50: 61.1 µM
  TGI: > 100 µM
UACC-257 melanoma
  GI50: 54.8 µM
  TGI: > 100 µM
OVCAR-5 ovarian
  GI50: > 100 µM
  TGI: > 100 µM
OVCAR-3 ovarian
  GI50: > 100 µM
  TGI: > 100 µM
OVCAR-8 ovarian
  GI50: > 100 µM
  TGI: > 100 µM
HL-60(TB) leukemia
  GI50: > 100 µM
  TGI: > 100 µM
SK-MEL-2 melanoma
  GI50: > 100 µM
  TGI: > 100 µM
SF-295 CNS
  GI50: > 72.3 µM
  TGI: > 100 µM
RXF 393 renal
  GI50: > 70.2 µM
  TGI: > 100 µM
A498 renal
  GI50: 1.77 µM
  TGI: 25 µM
SNB-75 CNS
  GI50: 17.9 µM
  TGI: > 100 µM
MALME-3M melanoma
  GI50: 46.3 µM
  TGI: > 100 µM
NCI/ADR-RES ovarian
  GI50: > 100 µM
  TGI: > 100 µM
SW-620 colon
  GI50: 49.4 µM
  TGI: > 100 µM
SF-268 CNS
  GI50: > 100 µM
  TGI: > 100 µM
SK-OV-3 ovarian
  GI50: > 100 µM
  TGI: > 100 µM
UO-31 renal
  GI50: 26.9 µM
  TGI: > 100 µM
PC-3 prostate
  GI50: > 100 µM
  TGI: > 100 µM
OVCAR-4 ovarian
  GI50: > 39.1 µM
  TGI: > 100 µM
MDA-MB-435
  GI50: > 100 µM
  TGI: > 100 µM
KM12 colon
  GI50: > 100 µM
  TGI: > 100 µM
A549 NSCLC
  GI50: > 100 µM
  TGI: > 100 µM
CAKI-1 renal
  GI50: > 100 µM
  TGI: > 100 µM
DU-145 prostate
  GI50: > 100 µM
  TGI: > 100 µM
COLO 205 colon
  GI50: 26 µM
  TGI: > 100 µM
MOLT-4 leukemia
  GI50: > 100 µM
  TGI: > 100 µM
TK-10 renal
  GI50: > 100 µM
  TGI: > 100 µM
UACC-62 melanoma
  GI50: 98.8 µM
  TGI: > 100 µM
SK-MEL-5 melanoma
  GI50: 20.3 µM
  TGI: > 85 µM
MDA-MB-231 breast
  GI50: > 100 µM
  TGI: > 100 µM
NCI-H460 lung
  GI50: > 100 µM
  TGI: > 100 µM
SN12C renal
  GI50: > 100 µM
  TGI: > 100 µM
HCT-15 colon
  GI50: > 100 µM
  TGI: > 100 µM
SF-539 CNS
  GI50: 36.9 µM
  TGI: > 100 µM
LOX IMVI melanoma
  GI50: 68 µM
  TGI: > 100 µM
RPMI-8226 leukemia
  GI50: > 100 µM
  TGI: > 100 µM
